{
  "source": "patent US11034700B2",
  "about": "“Substituted pyrrolidine compound and use thereof” (Takeda Pharmaceutical Company Limited, priority 2017, dated 2021)",
  "data": [
    {"target": "T1, human OX2 receptor (Homo sapiens, UniProt O43614)", "T1 construct": "expressed in transfected cells", "T1 sequence (O43614 1-444)": "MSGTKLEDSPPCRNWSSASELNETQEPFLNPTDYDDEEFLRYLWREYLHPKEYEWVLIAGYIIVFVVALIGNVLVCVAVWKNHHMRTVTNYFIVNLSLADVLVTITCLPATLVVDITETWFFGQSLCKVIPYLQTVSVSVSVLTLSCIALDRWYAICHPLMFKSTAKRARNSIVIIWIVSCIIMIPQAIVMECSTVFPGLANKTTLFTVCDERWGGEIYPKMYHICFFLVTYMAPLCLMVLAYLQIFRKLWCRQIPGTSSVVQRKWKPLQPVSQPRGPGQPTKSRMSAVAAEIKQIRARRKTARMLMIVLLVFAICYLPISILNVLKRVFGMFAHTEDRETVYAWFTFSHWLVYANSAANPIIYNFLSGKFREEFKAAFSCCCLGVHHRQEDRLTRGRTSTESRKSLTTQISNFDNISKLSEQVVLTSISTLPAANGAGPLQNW", "experiment": "Measurement of orexin type 2 receptor agonist activity (Fluo-4 calcium fluorescence, FDSS)", "format": "cell-based", "settings": "compound at 3 μM; CHO cells forcibly expressing human OX2 receptor; DMSO = 0%, orexin A (human) 10 nM = 100%", "text": "Experimental Example 1: Obtainment of Cell Stably Expressing Human Orexin Type 2 Receptor (hOX2R)\nTo obtain a cell clone stably expressing human orexin type 2 receptor, human orexin type 2 receptor cDNA was inserted into pcDNA3.1(+) plasmid vector (Invitrogen), and a plasmid DNA for expression of human orexin type 2 receptor (pcDNA3.1(+)/hOX2R) was cloned. The plasmid DNA was introduced into CHO-dhfr cell by an electroporation method, and human orexin type 2 receptor expressing clone cells were obtained by limiting dilution method by using G418 drug resistance as a selection marker.\nExperimental Example 2: Measurement of Orexin Type 2 Receptor Agonist Activity\nCHO cells forcibly expressing human OX2 receptor were seeded in each well of 384 well black transparent bottom plate (BD Falcon) at 7,500 cells/well, and cultured for one day in a 5% CO2 incubator at 37° C. After removal of the medium in the cell plate, assay buffer A containing a calcium indicator (HESS (Life Technologies), 20 mM HEPES (Life Technologies), 0.1% BSA (Wako Pure Chemical Industries, Ltd.), 2.5 μg/mL Fluo-4 AM (DOJINDO Chemical), 0.08% Pluronic F127 (DOJINDO Chemical), 1.25 mM probenecid (DOJINDO Chemical)) was added at 30 μL/well. The plate was stood for 30 min in a 5% CO2 incubator at 37° C., and further stood at room temperature for 30 min. A test compound prepared by diluting with assay buffer B (HESS, 20 mM HEPES, 0.1% BSA) was added at 10 μL/well, and the fluorescence value was measured by FDSSμCELL (Hamamatsu Photonics K.K.) every one sec for 1 min, and thereafter every two sec for 1 min 40 sec. The activity (%) of the test compound was calculated assuming that variation in the fluorescence value when DMSO was added instead of the test compound was 0% […], and variation in the fluorescence value when orexin A (human) (PEPTIDE INSTITUTE, INC.) was added at the final concentration of 10 nM was 100% […]. The activity of each compound at the concentration of 3 μM was shown below.", "units": {"OX2R agonist activity (3 μM, %)": "%"}, "values": [
      {"compound": "COc1ccccc1S(=O)(=O)Nc1cccc(O[C@@H]2CN(C(=O)c3cc(C)ccc3C)C[C@H]2OC)c1", "note": "(relative stereo) [Example 56, trans-N-(3-((1-(2,5-dimethylbenzoyl)-4-methoxypyrrolidin-3-yl)oxy)phenyl)-2-methoxybenzenesulfonamide]", "OX2R agonist activity (3 μM, %)": 101},
      {"compound": "COc1ccc(-c2cccc(C(=O)N(C)C)c2)cc1S(=O)(=O)Nc1cccc(O[C@@H]2CN(C(=O)c3cc(C)ccc3C)C[C@@H]2OC)c1", "note": "(relative stereo) [Example 59, cis-3′-((3-((1-(2,5-dimethylbenzoyl)-4-methoxypyrrolidin-3-yl)oxy)phenyl)sulfamoyl)-4′-methoxy-N,N-dimethylbiphenyl-3-carboxamide]", "OX2R agonist activity (3 μM, %)": 103},
      {"compound": "COc1ccc(-c2cccc(C(=O)N(C)C)c2)cc1S(=O)(=O)Nc1cccc(O[C@@H]2CN(C(=O)c3cc(C)ccc3C)C[C@H]2OC)c1", "note": "(relative stereo) [Example 60, trans-3′-((3-((1-(2,5-dimethylbenzoyl)-4-methoxypyrrolidin-3-yl)oxy)phenyl)sulfamoyl)-4′-methoxy-N,N-dimethylbiphenyl-3-carboxamide]", "OX2R agonist activity (3 μM, %)": 105},
      {"compound": "CO[C@@H]1CN(C(=O)c2cc(C)ccc2C)C[C@H]1Oc1cccc(NS(=O)(=O)c2ccccc2)c1", "note": "(relative stereo) [Example 65, trans-N-(3-((1-(2,5-dimethylbenzoyl)-4-methoxypyrrolidin-3-yl)oxy)phenyl)benzenesulfonamide]", "OX2R agonist activity (3 μM, %)": 78},
      {"compound": "CCCS(=O)(=O)Nc1cccc(O[C@@H]2CN(C(=O)c3cc(C)ccc3C)C[C@H]2OC)c1", "note": "(relative stereo) [Example 66, trans-N-(3-((1-(2,5-dimethylbenzoyl)-4-methoxypyrrolidin-3-yl)oxy)phenyl)propane-1-sulfonamide]", "OX2R agonist activity (3 μM, %)": 76},
      {"compound": "COc1ccccc1S(=O)(=O)Nc1ccc(F)c(O[C@@H]2CN(C(=O)c3cc(C)ccc3C)C[C@H]2OC)c1", "note": "(relative stereo) [Example 86, trans-N-(3-((1-(2,5-dimethylbenzoyl)-4-methoxypyrrolidin-3-yl)oxy)-4-fluorophenyl)-2-methoxybenzenesulfonamide]", "OX2R agonist activity (3 μM, %)": 80},
      {"compound": "COc1ccccc1S(=O)(=O)Nc1cccc(O[C@@H]2CN(C(=O)c3cc(C)ccc3C)C[C@H]2OC)c1F", "note": "(relative stereo) [Example 87, trans-N-(3-((1-(2,5-dimethylbenzoyl)-4-methoxypyrrolidin-3-yl)oxy)-2-fluorophenyl)-2-methoxybenzenesulfonamide]", "OX2R agonist activity (3 μM, %)": 103},
      {"compound": "COc1ccccc1S(=O)(=O)Nc1cccc(O[C@@H]2CN(C(=O)c3cc(C)ccc3C)C[C@H]2C)c1", "note": "(relative stereo) [Example 92, trans-N-(3-((1-(2,5-dimethylbenzoyl)-4-methylpyrrolidin-3-yl)oxy)phenyl)-2-methoxybenzenesulfonamide]", "OX2R agonist activity (3 μM, %)": 102},
      {"compound": "CC[C@@H]1CN(C(=O)c2cc(C)ccc2C)C[C@H]1Oc1cccc(NS(=O)(=O)c2ccccc2OC)c1", "note": "(relative stereo) [Example 93, trans-N-(3-((1-(2,5-dimethylbenzoyl)-4-ethylpyrrolidin-3-yl)oxy)phenyl)-2-methoxybenzenesulfonamide]", "OX2R agonist activity (3 μM, %)": 80},
      {"compound": "COc1ccccc1S(=O)(=O)Nc1cc(F)cc(O[C@@H]2CN(C(=O)c3cc(C)ccc3C)C[C@H]2OC)c1", "note": "(relative stereo) [Example 100, trans-N-(3-((1-(2,5-dimethylbenzoyl)-4-methoxypyrrolidin-3-yl)oxy)-5-fluorophenyl)-2-methoxybenzenesulfonamide]", "OX2R agonist activity (3 μM, %)": 102},
      {"compound": "COc1ccccc1S(=O)(=O)Nc1ccnc(O[C@@H]2CN(C(=O)c3cc(C)ccc3C)C[C@H]2OC)c1", "note": "(relative stereo) [Example 101, trans-N-(2-((1-(2,5-dimethylbenzoyl)-4-methoxypyrrolidin-3-yl)oxy)pyridin-4-yl)-2-methoxybenzenesulfonamide]", "OX2R agonist activity (3 μM, %)": 95},
      {"compound": "COc1ccccc1S(=O)(=O)Nc1cccc(O[C@@H]2CN(C(=O)c3cc(C)ccc3C)C[C@H]2OC)c1C", "note": "(relative stereo) [Example 103, trans-N-(3-((1-(2,5-dimethylbenzoyl)-4-methoxypyrrolidin-3-yl)oxy)-2-methylphenyl)-2-methoxybenzenesulfonamide]", "OX2R agonist activity (3 μM, %)": 80},
      {"compound": "COc1ccccc1S(=O)(=O)Nc1cc(C)cc(O[C@@H]2CN(C(=O)c3cc(C)ccc3C)C[C@H]2OC)c1", "note": "(relative stereo) [Example 105, trans-N-(3-((1-(2,5-dimethylbenzoyl)-4-methoxypyrrolidin-3-yl)oxy)-5-methylphenyl)-2-methoxybenzenesulfonamide]", "OX2R agonist activity (3 μM, %)": 94},
      {"compound": "COc1ccccc1S(=O)(=O)Nc1cncc(O[C@@H]2CN(C(=O)c3cc(C)ccc3C)C[C@H]2OC)c1", "note": "(relative stereo) [Example 106, trans-N-(5-((1-(2,5-dimethylbenzoyl)-4-methoxypyrrolidin-3-yl)oxy)pyridin-3-yl)-2-methoxybenzenesulfonamide]", "OX2R agonist activity (3 μM, %)": 104},
      {"compound": "COc1ccccc1S(=O)(=O)Nc1cccc(O[C@@H]2CN(C(=O)c3cc(C)ccc3C)C[C@H]2F)c1", "note": "(relative stereo) [Example 107, trans-N-(3-((1-(2,5-dimethylbenzoyl)-4-fluoropyrrolidin-3-yl)oxy)phenyl)-2-methoxybenzenesulfonamide]", "OX2R agonist activity (3 μM, %)": 77},
      {"compound": "CO[C@@H]1CN(C(=O)c2c(C)cccc2C)C[C@H]1Oc1cccc(NS(=O)(=O)c2sccc2Cl)c1F", "note": "(relative stereo) [Example 111, trans-3-chloro-N-(3-((1-(2,6-dimethylbenzoyl)-4-methoxypyrrolidin-3-yl)oxy)-2-fluorophenyl)thiophene-2-sulfonamide]", "OX2R agonist activity (3 μM, %)": 52},
      {"compound": "COc1ccccc1S(=O)(=O)Nc1cccc(O[C@@H]2CN(C(=O)c3cc(C)ccc3C)C[C@H]2O)c1", "note": "(relative stereo) [Example 114, trans-N-(3-((1-(2,5-dimethylbenzoyl)-4-hydroxypyrrolidin-3-yl)oxy)phenyl)-2-methoxybenzenesulfonamide]", "OX2R agonist activity (3 μM, %)": 60},
      {"compound": "COc1ccccc1S(=O)(=O)Nc1cccc(O[C@@H]2CN(C(=O)c3cc(C)ccc3C)C[C@H]2OC)c1Cl", "note": "(relative stereo) [Example 117, trans-N-(2-chloro-3-((1-(2,5-dimethylbenzoyl)-4-methoxypyrrolidin-3-yl)oxy)phenyl)-2-methoxybenzenesulfonamide]", "OX2R agonist activity (3 μM, %)": 66},
      {"compound": "COc1ccccc1S(=O)(=O)Nc1cccc(C[C@@H]2CN(C(=O)c3cc(C)ccc3C)C[C@H]2OC)c1", "note": "(relative stereo) [Example 119, trans-N-(3-((1-(2,5-dimethylbenzoyl)-4-methoxypyrrolidin-3-yl)methyl)phenyl)-2-methoxybenzenesulfonamide]", "OX2R agonist activity (3 μM, %)": 57},
      {"compound": "COc1ccccc1S(=O)(=O)Nc1cccc(O[C@@H]2CN(C(=O)c3cc(C)ccc3C)C[C@H]2C#N)c1", "note": "(relative stereo) [Example 126, trans-N-(3-((4-cyano-1-(2,5-dimethylbenzoyl)pyrrolidin-3-yl)oxy)phenyl)-2-methoxybenzenesulfonamide]", "OX2R agonist activity (3 μM, %)": 67}
    ]}
  ]
}
